In US11891386B2, “Indole compounds and their use” (ARIAGEN, INC., priority 2017, dated 2024):
Where two headings read alike, the source gives them in different places.

What was measured:
[1] = tested on: CYP1A1 in human HepG2 cells; experiment: EROD assay (7-ethoxy-resorufin-O-deethylase), human HepG2 cells; format: cell-based; parameters: key to activity group based on EC50 values, in the order of increasing activity: (1) active; (2) more active; (3) most active; conditions: for activity in the human EROD assay compared to ARI-001 / ARI-002, in words / EC50: human HepG2 cells; for EC50: EROD assay, 20 hours treatment
Experimental: (§1) CYP1A1 induction is under the control of the AhR signaling pathway. This Example describes an in vitro assay (7-ethoxy-resorufin-O-deethylase (EROD) assay) that evaluated the AhR modulating activities of the indole compounds described herein. In this assay, the indole compounds were incubated with human HepG2 cells or mouse Hepal-6 cells. The activity of CYP1A1 in the cells was measured by the conversion of substrate 7-ethoxyresorufin, with the readout being a fluorescence signal associated with the conversion product. The EC50 values of the indole compounds as well as the maximum […] induced by them in the assay were determined.
(§2) Human HepG2 cells were obtained from Sigma Aldrich (Catalog 85011430-1VL). Mouse Hepal-6 cells also were obtained from Sigma Aldrich (Catalog 92110305-1V).
(§3) Human HepG2 and Mouse Hepal-6 cells were grown to 60-80% confluency in tissue culture flasks, lifted with non-enzymatic cell dissociation solution (cell stripper), seeded in a 384-well plate at 5,000 cells per well, treated with the test compounds, and incubated for 20 hours overnight at 37° C. The treatment medium was removed and a solution of substrate 7-ethoxyresorufin (ETX) was added to initiate the reaction. The plate was incubated at 37° C. for 30 minutes. The reaction was subsequently terminated by adding tempered methanol. Fluorescent emission was measured at 590 nm with excitation at 530 nm in a FLEXSTATION III instrument (Molecular Devices).

[2] = tested on: CYP1A1 in mouse Hepal-6 cells; experiment: EROD assay (7-ethoxy-resorufin-O-deethylase), mouse Hepa1-6 cells; format: cell-based; conditions: for EC50: EROD assay, 20 hours treatment
Experimental: as §1, §2, §3

[3] = In vivo pharmacokinetic study in Sprague-Dawley rats; conditions: rat; for bioavailability: Sprague-Dawley, plasma, po, 10 mg/kg, PO (10 mg/kg) vs IV (2 mg/kg), read-out: F % (bioavailability); for % of Hepatisc Blood Flow: IV (2 mg/kg)
Experimental: This example describes pharmacokinetic (PK) studies of the various indole compounds described herein in rats, a rodent species widely used for pre-clinical toxicology evaluation. In the present studies, the test compounds were given to groups of Sprague-Dawley rats (N=3 in each group) intravenously (IV) at 2 mg/kg or orally (PO) at 10 mg/kg. IV doses were formulated in DMSO, while PO doses were formulated in a 50/50 mixture of PEG400 and Tween 80. Blood samples were collected at pre-dose and over a period of 24 hours post-dose. Plasma concentrations of the indole compounds were determined by HPLC.

[4] = tested on: EMT-6 syngeneic mouse tumor model (breast cancer); experiment: Anti-tumor activity, EMT-6 syngeneic mouse tumor model; format: in vivo
Experimental: (§4) This example describes in vivo studies that evaluated the anti-cancer efficacy of the disclosed indole compounds in syngeneic mouse tumor models. Mice implanted subcutaneously with four types of cancer cells were treated with test indole compounds or vehicle controls as described below.
(§5) A monolayer culture of tumor cells was maintained in vitro in DMEM or RPMI1640 medium supplemented with 10% fetal bovine serum at 37° C. in an atmosphere of 5% CO2. Cells in exponential growth phase were harvested and quantitated by cell counter before tumor inoculation. The cell lines used are described in the table below.
(§6) Four subcutaneous syngeneic mouse tumor models were generated by innoculating female BALB/C or C57BL/6 mice with cancer cells at their right lower or front flank as detailed in the table below:
(§7) Each mouse was inoculated subcutaneously with tumor cells in 0.1 mL of PBS. Treatments were started when the mean tumor size reached approximately 80-120 mm^3 (around 100 mm^3). The administration of the indole compounds and the animal number in each study group are shown in the study design. The date of tumor cell inoculation was denoted as day 0.
(§8) The indole compounds were dissolved in DMSO at the final concentration of 26.7 mg/ml and stored at room temperature.
(§9) Randomization of animals was started when the mean tumor size reached approximately 90 mm^3 to form the mouse study groups. The randomization was performed based on “Matched distribution” method using the multi-task method (StudyDirector™ software, version 3.1.399.19)/randomized block design. The mouse groups (ten in each group) were treated with vehicle (DMSO) or the indole compounds at a dose of 40 mg/kg by i.p. injection, QD for 28 days or longer.
(§10) After tumor cell inoculation, the mice were checked daily for morbidity and mortality. During routine monitoring, the mice were checked for tumor growth and any effects of the treatment on behavior such as mobility, food and water consumption, body weight gain/loss (body weights were measured twice per week after randomization), eye/hair matting, and any other abnormalities. Mortality and observed clinical signs were recorded for individual mice in detail.
(§11) Tumor volumes were measured twice per week in two dimensions using a caliper, and the volume was expressed in mm^3 using the formula: V=(L×W×W)/2, where V is tumor volume, L is tumor length (the longest tumor dimension) and W is tumor width (the longest tumor dimension perpendicular to L). Dosing as well as tumor and body weight measurements was conducted in a Laminar Flow Cabinet. The body weights and tumor volumes were measured by using StudyDirector™ software (version 3.1.399.19). Dosing Holiday
Tumor growth inhibition percentage (TGI %) is an indicator for antitumor activity of a drug compound, and expressed as: TGI (%)=100×(1−T/C), where T and C are the mean tumor volume (or weight) of the treated and control groups, respectively, on a given day. Statistical analysis of the difference in mean tumor volume (MTV) among the groups was conducted using the data collected on the day when the MTV of the vehicle group reached the humane endpoints, so that TGI could be derived for all or most mice enrolled in the study.
In Studies 1 and 3, the anti-tumor activity of ARI-001 in parallel with ARI-002 at 160 mg/kg (mpk), and the anti-tumor activity of ARI-087 in parallel with ARI-002 at 40 mpk were assessed using the EMT-6, Pan02, A20, and LL/2 models. Because EMT-6 provides a fast-growing model that enables relatively quick differentiation of performance between compounds, this syngeneic mouse tumor model was chosen for the other studies. In Study 2, the anti-tumor activity of ARI-002 was compared with that of ARI-004 at 10, 40, and 80 mpk. In Study 4, the anti-tumor activity of ARI-087 was compared with that of ARI-140. In Study 5, the anti-tumor activity of ARI-087 was evaluated in parallel with ARI-143 and ARI-149 at 40 mpk. […]

[5] = tested on: Pan02 syngeneic mouse tumor model (pancreatic cancer); experiment: Anti-tumor activity, Pan02 syngeneic mouse tumor model; format: in vivo
Experimental: as §4, §5, §6, §7, §8
Randomization of animals was started when the mean tumor size reached approximately 90 mm^3 to form the mouse study groups. […]
as §10
as §11, with “Dosing as well as tumor and body weight measurements was conducted in a Laminar Flow Cabinet.” left out, “Dosing Holiday” left out
(§12) Tumor growth inhibition percentage (TGI %) is an indicator for antitumor activity of a drug compound, and expressed as: TGI (%)=100×(1−T/C), where T and C are the mean tumor volume (or weight) of the treated and control groups, respectively, on a given day. […]
In Studies 1 and 3, the anti-tumor activity of ARI-001 in parallel with ARI-002 at 160 mg/kg (mpk), and the anti-tumor activity of ARI-087 in parallel with ARI-002 at 40 mpk were assessed using the EMT-6, Pan02, A20, and LL/2 models. […]

[6] = tested on: A20 syngeneic mouse tumor model (B cell lymphoma); experiment: Anti-tumor activity, A20 syngeneic mouse tumor model; format: in vivo
Experimental: as §4, §5, §6, §7, §8, §9, §10, §11, §12
(§13) In Studies 1 and 3, the anti-tumor activity of ARI-001 in parallel with ARI-002 at 160 mg/kg (mpk), and the anti-tumor activity of ARI-087 in parallel with ARI-002 at 40 mpk were assessed using the EMT-6, Pan02, A20, and LL/2 models. […] In Study 5, the anti-tumor activity of ARI-087 was evaluated in parallel with ARI-143 and ARI-149 at 40 mpk. […]

[7] = tested on: LL/2 syngeneic mouse tumor model (lung cancer); experiment: Anti-tumor activity, LL/2 syngeneic mouse tumor model; format: in vivo; conditions: D28
Experimental: as §4, §5, §6, §7, §8, §9, §10, §11, §12, §13

hepatocytes = experiment: Metabolite analysis in hepatocytes by high-resolution mass spectrometry; format: in vitro ADME; conditions: preliminary studies
Source text: It remains unclear whether halogen substitutions at the indole ring impact the activity and metabolic profiles of the indole compounds described herein.

SMILES: CNC(=O)c1csc(C(=O)c2c[nH]c3ccccc23)n1 [ARI-004]
- activity in the human EROD assay compared to ARI-001 / ARI-002, in words [1]: less active
- activity in the mouse EROD assay, in words [2]: less active
- bioavailability [3]: 33.6%
- % of Hepatisc Blood Flow [3]: 189%
- inhibition in vivo at 10 mg/kg ([4]; Mus musculus, EMT6, 648 h, Study 2, EMT-6, 10 mpk, D27, read-out: TGI (tumor growth inhibition)): -38.2%
- inhibition in vivo at 40 mg/kg ([4]; Mus musculus, EMT6, 648 h, Study 2, EMT-6, 40 mpk, D27, read-out: TGI (tumor growth inhibition)): 0.3%
- inhibition in vivo at 80 mg/kg ([4]; Mus musculus, EMT6, 648 h, Study 2, EMT-6, 80 mpk, D27, read-out: TGI (tumor growth inhibition)): 15.8%

SMILES: COC(=O)c1csc(C(=O)c2c[nH]c3ccccc23)n1 [ARI-001, ITE]
- EC50 [1]: 28.9 nM
- EC50 [2]: 64 nM
- bioavailability [3]: 0.4%
- % of Hepatisc Blood Flow [3]: 289%
- inhibition in vivo at 160 mg/kg ([4]; Mus musculus, EMT6, 648 h, Study 1, EMT-6, 160 mpk, D27, read-out: TGI (tumor growth inhibition)): 53%
- TGI (tumor growth inhibition) ([5]; Study 1, Pan02, 160 mpk, D28): 74.2% D28
- TGI (tumor growth inhibition) ([6]; Study 1, A20, 160 mpk, D26): 54.5% D26
- TGI (tumor growth inhibition) ([7]; Study 1, LL/2, 160 mpk): 65.1% D28

SMILES: CCC(=O)c1csc(C(=O)c2c[nH]c3cc(F)ccc23)n1 [ARI-143, 1-(2-(6-fluoro-1H-indole-3-carbonyl)thiazol-4-yl)propan-1-one]
- EC50 [1]: 4.2 nM
- EC50 [2]: 2.3 nM
- bioavailability [3]: 19.3%
- IV AUCinf, times higher than ARI-002 ([3]; IV): 1.5 times
- plasma clearance, % of that of ARI-002 ([3]; IV): 74%
- % of Hepatisc Blood Flow [3]: 19%
- PO AUCinf, times higher than that of ARI-002 ([3]; PO): 2.6 times
- absolute oral bioavailability, times higher than ARI-002 ([3]; PO): 1.8 times
- anti-tumor potency, in words ([4]; EMT-6 model, 40 mpk): most potent ketone derivative
- tumor growth and survival, in words ([4]; EMT-6 model, 40 mpk): delay tumor growth and prolong survival
- complete tumor regression (CR) ([4]; EMT-6 model, Study 5, by day 51): 2 out of 10
- inhibition in vivo at 40 mg/kg ([4]; Mus musculus, EMT6, ip, 720 h, Study 5, EMT-6, 40 mpk i.p. QD, D30, read-out: TGI (tumor growth inhibition)): 65.9%
- primary metabolites of the indole ring identified (hepatocytes): fewer primary metabolites of the indole ring

SMILES: Nc1nnc(-c2csc(C(=O)c3c[nH]c4ccccc34)n2)o1 [ARI-083, (4-(5-amino-1,3,4-oxadiazol-2-yl)thiazol-2-yl)(1H-indol-3-yl)methanone]
- activity group based on EC50 values, in the order of increasing activity ([1]; human EROD assay, oxadiazole derivatives of ITE): more active
- activity in the human EROD assay compared to ARI-001 / ARI-002, in words [1]: significantly more (about 4 to 900 times more) active than ARI-001
- bioavailability [3]: 1%
- IV PK profile compared to ARI-001, ARI-002, and ARI-004, in words ([3]; IV): improved IV PK profiles
- % of Hepatisc Blood Flow [3]: 45%
- inhibition in vivo at 40 mg/kg ([4]; Mus musculus, EMT6, ip, 648 h, Study 3, EMT-6, 40 mpk i.p. QD, D27, read-out: TGI (tumor growth inhibition)): 21.2%
- TGI (tumor growth inhibition) ([5]; Study 3, Pan02, 40 mpk i.p. QD, D60): 2.7% D60
- TGI (tumor growth inhibition) ([6]; Study 3, A20, 40 mpk i.p. QD, D28): 22% D28
- TGI (tumor growth inhibition) ([7]; Study 3, LL/2, 40 mpk i.p. QD): 24.0% D28
